Assays:
[1] = molecular target: T1, SIK1 kinase (aa1-303, Thermo Fisher) (Homo sapiens, UniProt P57059); experiment: Biochemical activities determination for SIK1 protein (TR-FRET); conditions: 110 uM ATP, 0.5 μM STK1 substrate
T1 construct: SIK1 kinase (aa1-303, Thermo Fisher); purchased Thermo Fisher
In short: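 TR-FRET kinase assay with SIK1 (aa1-303), 110 uM ATP, 0.5 μM STK1 substrate and 0-10 μM compound in Tris pH 7.5 with MgCl2, EGTA, DTT, Triton X-100. Enzyme preincubated with compound 60 min, reaction 180 min at room temperature; 665/620 nm ratio after overnight detection; IC50 from four-parameter logistic fit.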

[2] = molecular target: T2, SIK2 kinase (full length, Thermo Fisher) (Homo sapiens, UniProt Q9H0K1); experiment: Biochemical activities determination for SIK2 protein (TR-FRET); conditions: 80 uM ATP, 0.5 μM substrate
T2 construct: SIK2 kinase (full length, Thermo Fisher); purchased Thermo Fisher
In short: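 Full-length SIK2 preincubated 60 min with 0–10 μM compound, then reacted 180 min at room temperature with 80 uM ATP and 0.5 μM biotinylated substrate (pH 7.5 Tris/MgCl2 buffer). Phosphorylation detected by TR-FRET (665/620 nm ratio, cryptate antibody/streptavidin-XL665) after overnight incubation; IC50 from four-parameter logistic fit.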

[3] = molecular target: T3, SIK3 kinase (aa59-365, Thermo Fisher) (Homo sapiens, UniProt Q9Y2K2); experiment: Biochemical activities determination for SIK3 protein (TR-FRET); conditions: 125 uM ATP, 0.5 μM STK1 substrate
T3 construct: SIK3 kinase (aa59-365, Thermo Fisher); purchased Thermo Fisher
In short: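 SIK3 (aa59-365) was preincubated with compound (0-10 μM) for 60 min at room temperature in Tris buffer pH 7.5. The reaction was then started with 125 uM ATP and 0.5 μM STK1 substrate and run 180 min at room temperature. Phospho-substrate was detected by HTRF (665/620 nm ratio), and IC50 came from a four-parameter logistic fit.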

T1 sequence (P57059 1-303): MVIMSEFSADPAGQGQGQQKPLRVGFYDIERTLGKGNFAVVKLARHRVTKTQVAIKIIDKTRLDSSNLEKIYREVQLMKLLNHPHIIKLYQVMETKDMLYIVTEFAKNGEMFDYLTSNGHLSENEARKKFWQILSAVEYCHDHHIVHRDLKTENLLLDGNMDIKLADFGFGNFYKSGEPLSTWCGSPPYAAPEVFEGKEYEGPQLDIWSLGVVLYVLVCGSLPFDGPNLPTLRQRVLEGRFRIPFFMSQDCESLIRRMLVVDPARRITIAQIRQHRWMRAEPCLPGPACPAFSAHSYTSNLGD
T2 sequence (Q9H0K1 whole entry): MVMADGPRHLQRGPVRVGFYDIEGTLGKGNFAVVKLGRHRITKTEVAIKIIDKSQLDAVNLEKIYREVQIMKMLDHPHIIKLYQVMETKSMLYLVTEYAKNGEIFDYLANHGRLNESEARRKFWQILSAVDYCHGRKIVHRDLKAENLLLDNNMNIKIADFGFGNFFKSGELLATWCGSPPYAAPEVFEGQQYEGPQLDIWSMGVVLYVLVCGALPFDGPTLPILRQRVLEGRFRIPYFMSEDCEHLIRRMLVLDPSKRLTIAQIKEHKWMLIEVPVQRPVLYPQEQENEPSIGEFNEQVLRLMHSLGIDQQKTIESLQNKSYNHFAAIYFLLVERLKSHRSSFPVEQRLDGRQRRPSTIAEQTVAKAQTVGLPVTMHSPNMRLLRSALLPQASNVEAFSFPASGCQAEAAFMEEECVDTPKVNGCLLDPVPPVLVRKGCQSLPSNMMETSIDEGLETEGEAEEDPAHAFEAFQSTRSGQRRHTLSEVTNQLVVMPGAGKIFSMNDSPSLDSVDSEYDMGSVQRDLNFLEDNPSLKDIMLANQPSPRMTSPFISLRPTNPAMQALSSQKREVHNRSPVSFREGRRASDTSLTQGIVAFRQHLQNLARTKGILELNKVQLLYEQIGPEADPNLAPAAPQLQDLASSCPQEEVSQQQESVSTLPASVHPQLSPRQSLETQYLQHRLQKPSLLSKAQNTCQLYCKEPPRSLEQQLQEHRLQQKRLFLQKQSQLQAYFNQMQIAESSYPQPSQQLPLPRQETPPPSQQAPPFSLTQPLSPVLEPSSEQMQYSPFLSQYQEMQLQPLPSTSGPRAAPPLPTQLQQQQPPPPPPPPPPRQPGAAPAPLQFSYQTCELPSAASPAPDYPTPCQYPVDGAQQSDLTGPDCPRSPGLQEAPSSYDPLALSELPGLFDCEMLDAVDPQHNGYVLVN
T3 sequence (Q9Y2K2 59-365): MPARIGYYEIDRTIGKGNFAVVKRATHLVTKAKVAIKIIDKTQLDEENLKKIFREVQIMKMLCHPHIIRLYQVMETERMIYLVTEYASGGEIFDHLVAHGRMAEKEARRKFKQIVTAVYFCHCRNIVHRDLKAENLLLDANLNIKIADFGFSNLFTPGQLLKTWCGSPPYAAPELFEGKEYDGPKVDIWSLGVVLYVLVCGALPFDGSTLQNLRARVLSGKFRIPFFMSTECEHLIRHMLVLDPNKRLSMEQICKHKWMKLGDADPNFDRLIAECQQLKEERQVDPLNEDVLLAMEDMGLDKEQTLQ

Structure (SMILES) | IC50 [1] [nM] | IC50 [2] [nM] | IC50 [3] [nM]
COc1cc(-c2coc3cc(OCCN4CCC[C@H]4C)ccc23)cc(OC(F)F)c1C(=O)N[C@@H]1C[C@@H]1F [Compound 77, 2-(difluoromethoxy)-N-((1R,2S)-2-fluorocyclopropyl)-6-methoxy-4-(6-(2-((R)-2-methylpyrrolidin-1-yl)ethoxy)benzofuran-3-yl)benzamide] | 3370 | 27 | 80
COc1cc(-c2coc3cc(OCCN4CC[C@@H](C)C4)ccc23)cc(OC(F)F)c1C(=O)N[C@@H]1C[C@@H]1F [Compound 78, 2-(difluoromethoxy)-N-((1R,2S)-2-fluorocyclopropyl)-6-methoxy-4-(6-(2-((R)-3-methylpyrrolidin-1-yl)ethoxy)benzofuran-3-yl)benzamide] | 1890 | 19 | 42
COc1cc(-c2coc3cc(OCCN4CC[C@@H](OC)C4)ccc23)cc(OC(F)F)c1C(=O)N[C@@H]1C[C@@H]1F [Compound 79, 2-(difluoromethoxy)-N-((1R,2S)-2-fluorocyclopropyl)-6-methoxy-4-(6-(2-((R)-3-methoxypyrrolidin-1-yl)ethoxy)benzofuran-3-yl)benzamide] | 2190 | 19 | 57
COc1cc(-c2coc3cc(OCCN4CCC[C@@H]4C)ccc23)cc(OC(F)F)c1C(=O)N[C@@H]1C[C@@H]1F [Compound 80, 2-(difluoromethoxy)-N-((1R,2S)-2-fluorocyclopropyl)-6-methoxy-4-(6-(2-((S)-2-methylpyrrolidin-1-yl)ethoxy)benzofuran-3-yl)benzamide] | 2850 | 20 | 54
COc1cc(-c2coc3cc(OCCN4CC[C@H](C)C4)ccc23)cc(OC(F)F)c1C(=O)N[C@@H]1C[C@@H]1F [Compound 81, 2-(difluoromethoxy)-N-((1R,2S)-2-fluorocyclopropyl)-6-methoxy-4-(6-(2-((S)-3-methylpyrrolidin-1-yl)ethoxy)benzofuran-3-yl)benzamide] | 1890 | 11 | 32
COc1cc(-c2coc3cc(OCCN4CC[C@H](OC)C4)ccc23)cc(OC(F)F)c1C(=O)N[C@@H]1C[C@@H]1F [Compound 82, 2-(difluoromethoxy)-N-((1R,2S)-2-fluorocyclopropyl)-6-methoxy-4-(6-(2-((S)-3-methoxypyrrolidin-1-yl)ethoxy)benzofuran-3-yl)benzamide] | 1470 | 15 | 57
COc1cc(-c2coc3cc(OCCN4CCN(C)CC4)ccc23)cc(OC(F)F)c1C(=O)N[C@@H]1C[C@@H]1F [Compound 83, 2-(difluoromethoxy)-N-((1R,2S)-2-fluorocyclopropyl)-6-methoxy-4-(6-(2-(4-methylpiperazin-1-yl)ethoxy)benzofuran-3-yl)benzamide] | 737 | 13 | 75
COc1cc(-c2coc3cc(OCCN4CCC(F)(F)C4)ccc23)cc(OC(F)F)c1C(=O)N[C@@H]1C[C@@H]1F [Compound 87, 2-(difluoromethoxy)-4-(6-(2-(3,3-difluoropyrrolidin-1-yl)ethoxy)benzofuran-3-yl)-N-((1R,2S)-2-fluorocyclopropyl)-6-methoxybenzamide] | 1090 | 78 | 22
COc1cc(-c2coc3cc(OCCN4CCC[C@H](C)C4)ccc23)cc(OC(F)F)c1C(=O)N[C@@H]1C[C@@H]1F [Compound 88, 2-(difluoromethoxy)-N-((1R,2S)-2-fluorocyclopropyl)-6-methoxy-4-(6-(2-((S)-3-methylpiperidin-1-yl)ethoxy)benzofuran-3-yl)benzamide] | 4540 | 17 | 68
COc1cc(-c2coc3cc(OCCN4CC[C@H](C(C)C)C4)ccc23)cc(OC(F)F)c1C(=O)N[C@@H]1C[C@@H]1F [Compound 90, 2-(difluoromethoxy)-N-((1R,2S)-2-fluorocyclopropyl)-4-(6-(2-((R)-3-isopropylpyrrolidin-1-yl)ethoxy)benzofuran-3-yl)-6-methoxybenzamide] | 2350 | 13 | 33
COc1cc(-c2coc3cc(OCCN4CCC(C)(C)C4)ccc23)cc(OC(F)F)c1C(=O)N[C@@H]1C[C@@H]1F [Compound 93, 2-(difluoromethoxy)-4-(6-(2-(3,3-dimethylpyrrolidin-1-yl)ethoxy)benzofuran-3-yl)-N-((1R,2S)-2-fluorocyclopropyl)-6-methoxybenzamide] | 2530 | 30 | 60
COc1cc(-c2coc3cc(OCCN4CCCC4C(F)(F)F)ccc23)cc(OC(F)F)c1C(=O)N[C@@H]1C[C@@H]1F (stereo partly drawn) [Compound 95, 2-(difluoromethoxy)-N-((1R,2S)-2-fluorocyclopropyl)-6-methoxy-4-(6-(2-(2-(trifluoromethyl)pyrrolidin-1-yl)ethoxy)benzofuran-3-yl)benzamide] | > 10000 | 507 | 117
CC[C@H]1CCN(CCOc2ccc3c(-c4cc(OC)c(C(=O)N[C@@H]5C[C@@H]5F)c(OC(F)F)c4)coc3c2)C1 [Compound 96, 2-(difluoromethoxy)-4-(6-(2-((S)-3-ethylpyrrolidin-1-yl)ethoxy)benzofuran-3-yl)-N-((1R,2S)-2-fluorocyclopropyl)-6-methoxybenzamide] | 2040 | 22 | 43

Results, then the molecule that gave them:

IC50 [1] [nM] | IC50 [2] [nM] | IC50 [3] [nM] | Structure (SMILES)
559 | 9 | 44 | COc1cc(-c2coc3cc(OCCCN4CCCCC4)ccc23)cc(OC(F)F)c1C(=O)N[C@@H]1C[C@@H]1F [Compound 84, 2-(difluoromethoxy)-N-((1R,2S)-2-fluorocyclopropyl)-6-methoxy-4-(6-(3-(piperidin-1-yl)propoxy)benzofuran-3-yl)benzamide]
236 | 8.1 | 32.8 | COc1cc(-c2coc3cc(OCCCN4CCN(C)CC4)ccc23)cc(OC(F)F)c1C(=O)N[C@@H]1C[C@@H]1F [Compound 85, 2-(difluoromethoxy)-N-((1R,2S)-2-fluorocyclopropyl)-6-methoxy-4-(6-(3-(4-methylpiperazin-1-yl)propoxy)benzofuran-3-yl)benzamide]
562 | 18 | 43 | COc1cc(-c2coc3cc(OCCCN4CCOCC4)ccc23)cc(OC(F)F)c1C(=O)N[C@@H]1C[C@@H]1F [Compound 86, 2-(difluoromethoxy)-N-((1R,2S)-2-fluorocyclopropyl)-6-methoxy-4-(6-(3-morpholinopropoxy)benzofuran-3-yl)benzamide]
4210 | 24 | 74 | COc1cc(-c2coc3cc(OCCN4CCC[C@@H](C)C4)ccc23)cc(OC(F)F)c1C(=O)N[C@@H]1C[C@@H]1F [Compound 89, 2-(difluoromethoxy)-N-((1R,2S)-2-fluorocyclopropyl)-6-methoxy-4-(6-(2-((R)-3-methylpiperidin-1-yl)ethoxy)benzofuran-3-yl)benzamide]
2500 | 31 | 74 | COc1cc(-c2coc3cc(OCCN4CCCC[C@@H]4C)ccc23)cc(OC(F)F)c1C(=O)N[C@@H]1C[C@@H]1F [Compound 91, 2-(difluoromethoxy)-N-((1R,2S)-2-fluorocyclopropyl)-6-methoxy-4-(6-(2-((S)-2-methylpiperidin-1-yl)ethoxy)benzofuran-3-yl)benzamide]
3010 | 32 | 104 | COc1cc(-c2coc3cc(OCCN4CCCC[C@H]4C)ccc23)cc(OC(F)F)c1C(=O)N[C@@H]1C[C@@H]1F [Compound 92, 2-(difluoromethoxy)-N-((1R,2S)-2-fluorocyclopropyl)-6-methoxy-4-(6-(2-((R)-2-methylpiperidin-1-yl)ethoxy)benzofuran-3-yl)benzamide]
2870 | 33 | 74 | COc1cc(-c2coc3cc(OCCN4CCC(C)CC4)ccc23)cc(OC(F)F)c1C(=O)N[C@@H]1C[C@@H]1F [Compound 94, 2-(difluoromethoxy)-N-((1R,2S)-2-fluorocyclopropyl)-6-methoxy-4-(6-(2-(4-methylpiperidin-1-yl)ethoxy)benzofuran-3-yl)benzamide]
8350 | 85 | 289 | COc1cc(-c2coc3cc(OCCN4CCCC4)ccc23)cc(OC(F)F)c1C(=O)N[C@@H]1C[C@H]1F [Compound 97, 2-(difluoromethoxy)-N-((1R,2R)-2-fluorocyclopropyl)-6-methoxy-4-(6-(2-(pyrrolidin-1-yl)ethoxy)benzofuran-3-yl)benzamide]
> 10000 | 128 | 525 | COc1cc(-c2coc3cc(OCCN4CCCC4)ccc23)cc(OC(F)F)c1C(=O)N[C@H]1C[C@H]1F [Compound 98, 2-(difluoromethoxy)-N-((1S,2R)-2-fluorocyclopropyl)-6-methoxy-4-(6-(2-(pyrrolidin-1-yl)ethoxy)benzofuran-3-yl)benzamide]

Source: patent publication US20260085053A1, “BENZOFURAN DERIVATIVES AS SIK INHIBITORS AND THE USE THEREOF” (BEONE MEDICINES I GMBH, priority 2023, published 2026)
